The text below walks through data of patent publication US8283361B2 (AstraZeneca AB, priority 2008, dated 2012).

The assay concerns the target S. aureus GyrB ATPase (Staphylococcus aureus, UniProt P0A0K8). The experiment in a line: biochemical. The settings on record: compound at 1 μM; one value per test if tested more than once; read-out: % Inhibition of S. aureus GyrB ATPase. The procedure, abridged:
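IC50 values derive from 10-point titrations of compound (in DMSO). Phosphate formed from 250 μM ATP was quantified by acidic molybdate/malachite green after quenching.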

S. aureus GyrB ATPase, sequence (P0A0K8 whole entry): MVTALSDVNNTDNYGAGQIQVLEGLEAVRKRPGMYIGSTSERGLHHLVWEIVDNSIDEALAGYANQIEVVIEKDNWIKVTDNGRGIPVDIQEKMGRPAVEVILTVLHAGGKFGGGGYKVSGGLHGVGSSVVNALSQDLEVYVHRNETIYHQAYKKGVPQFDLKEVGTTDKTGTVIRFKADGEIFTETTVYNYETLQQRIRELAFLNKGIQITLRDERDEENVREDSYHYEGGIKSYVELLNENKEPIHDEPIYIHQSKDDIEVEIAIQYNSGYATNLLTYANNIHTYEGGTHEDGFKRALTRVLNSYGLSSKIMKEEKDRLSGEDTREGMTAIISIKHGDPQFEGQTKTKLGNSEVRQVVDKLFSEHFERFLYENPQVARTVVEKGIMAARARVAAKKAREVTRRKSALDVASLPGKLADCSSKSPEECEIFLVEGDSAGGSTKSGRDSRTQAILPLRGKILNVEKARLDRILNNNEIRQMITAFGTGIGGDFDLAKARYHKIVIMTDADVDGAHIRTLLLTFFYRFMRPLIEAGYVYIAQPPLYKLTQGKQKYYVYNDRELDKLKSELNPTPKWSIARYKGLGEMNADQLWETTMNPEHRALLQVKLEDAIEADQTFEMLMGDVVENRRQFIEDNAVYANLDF
S. aureus GyrB ATPase, sequence (P0AES4 whole entry, further chain): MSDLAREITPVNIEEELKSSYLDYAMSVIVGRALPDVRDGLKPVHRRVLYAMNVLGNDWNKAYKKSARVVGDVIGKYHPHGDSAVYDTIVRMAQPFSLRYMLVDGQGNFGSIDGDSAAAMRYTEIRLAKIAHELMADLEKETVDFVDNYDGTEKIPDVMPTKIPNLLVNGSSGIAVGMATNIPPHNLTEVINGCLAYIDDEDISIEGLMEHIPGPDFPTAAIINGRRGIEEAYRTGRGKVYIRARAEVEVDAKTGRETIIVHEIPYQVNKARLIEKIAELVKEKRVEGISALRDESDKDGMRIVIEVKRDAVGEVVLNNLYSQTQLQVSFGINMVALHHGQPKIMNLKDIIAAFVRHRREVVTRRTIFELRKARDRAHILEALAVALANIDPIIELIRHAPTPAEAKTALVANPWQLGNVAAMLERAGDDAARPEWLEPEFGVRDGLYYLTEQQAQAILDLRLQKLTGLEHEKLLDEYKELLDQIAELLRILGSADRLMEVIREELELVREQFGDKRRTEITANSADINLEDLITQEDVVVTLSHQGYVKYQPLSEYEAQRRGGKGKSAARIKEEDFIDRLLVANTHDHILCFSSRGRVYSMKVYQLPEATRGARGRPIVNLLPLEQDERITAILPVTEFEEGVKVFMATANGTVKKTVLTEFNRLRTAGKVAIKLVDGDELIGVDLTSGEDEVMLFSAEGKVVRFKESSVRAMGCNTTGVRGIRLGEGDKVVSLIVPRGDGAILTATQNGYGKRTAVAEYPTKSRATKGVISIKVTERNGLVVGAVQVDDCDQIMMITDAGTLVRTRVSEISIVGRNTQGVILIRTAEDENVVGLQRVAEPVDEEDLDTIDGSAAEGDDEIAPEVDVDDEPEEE

As a reminder, the inhibition is the change of the read-out against control, counted positive when it falls. `CCNC(=O)Nc1cc(-c2nc(C(F)(F)F)cs2)c(-c2ccc3c(=O)c(C(=O)NC)cn(CC(C)C)c3c2)cn1` [Example 341, 7-{6-[(ethylcarbamoyl)amino]-4-[4-(trifluoromethyl)-1,3-thiazol-2-yl]pyridin-3-yl}-N-methyl-1-(2-methylpropyl)-4-oxo-1,4-dihydroquinoline-3-carboxamide]: the inhibition at 1 µM was determined as 99%. Then `CCNC(=O)Nc1cc(-c2nc(C(F)(F)F)cs2)c(-c2ccc3c(=O)c(C(=O)NCCO)cn(CC(C)C)c3c2)cn1` [Example 342, 7-{6-[(ethylcarbamoyl)amino]-4-[4-(trifluoromethyl)-1,3-thiazol-2-yl]pyridin-3-yl}-N-(2-hydroxyethyl)-1-(2-methylpropyl)-4-oxo-1,4-dihydroquinoline-3-carboxamide], with 99%; and `CCNC(=O)Nc1cc(-c2nc(C(F)(F)F)cs2)c(-c2ccc3c(=O)c(C(=O)NCCCO)cn(CC(C)C)c3c2)cn1` [Example 343, 7-{6-[(ethylcarbamoyl)amino]-4-[4-(trifluoromethyl)-1,3-thiazol-2-yl]pyridin-3-yl}-N-(3-hydroxypropyl)-1-(2-methylpropyl)-4-oxo-1,4-dihydroquinoline-3-carboxamide], with 98%.

As for `CCNC(=O)Nc1cc(-c2nc(C(F)(F)F)cs2)c(-c2ccc3c(=O)c(C(=O)NCCN(C)C)cn(CC(C)C)c3c2)cn1` [Example 344, N-[2-(dimethylamino)ethyl]-7-{6-[(ethylcarbamoyl)amino]-4-[4-(trifluoromethyl)-1,3-thiazol-2-yl]pyridin-3-yl}-1-(2-methylpropyl)-4-oxo-1,4-dihydroquinoline-3-carboxamide], the inhibition at 1 µM amounted to 95%. Then `CCNC(=O)Nc1cc(-c2nc(C(F)(F)F)cs2)c(-c2ccc3c(=O)c(C(=O)NCCN4CCOCC4)cn(CC(C)C)c3c2)cn1` [Example 345, 7-{6-[(ethylcarbamoyl)amino]-4-[4-(trifluoromethyl)-1,3-thiazol-2-yl]pyridin-3-yl}-1-(2-methylpropyl)-N-[2-(morpholin-4-yl)ethyl]-4-oxo-1,4-dihydroquinoline-3-carboxamide], with 98%; and `CCNC(=O)Nc1cc(-c2nc(C(F)(F)F)cs2)c(-c2ccc3c(=O)c(C(=O)NCCN4CCN(C)CC4)cn(CC(C)C)c3c2)cn1` [Example 346, 7-{6-[(ethylcarbamoyl)amino]-4-[4-(trifluoromethyl)-1,3-thiazol-2-yl]pyridin-3-yl}-N-[2-(4-methylpiperazin-1-yl)ethyl]-1-(2-methylpropyl)-4-oxo-1,4-dihydroquinoline-3-carboxamide], with 87%. As to `CCCn1cc(C(=O)NC)c(=O)c2ccc(-c3cnc(NC(=O)NCC)cc3-c3nc(C(F)(F)F)cs3)cc21` [Example 347, 7-{6-[(ethylcarbamoyl)amino]-4-[4-(trifluoromethyl)-1,3-thiazol-2-yl]pyridin-3-yl}-N-methyl-4-oxo-1-propyl-1,4-dihydroquinoline-3-carboxamide], the inhibition at 1 µM is 100%. Turning to `CCCn1cc(C(=O)NCCO)c(=O)c2ccc(-c3cnc(NC(=O)NCC)cc3-c3nc(C(F)(F)F)cs3)cc21` [Example 348, 7-{6-[(ethylcarbamoyl)amino]-4-[4-(trifluoromethyl)-1,3-thiazol-2-yl]pyridin-3-yl}-N-(2-hydroxyethyl)-4-oxo-1-propyl-1,4-dihydroquinoline-3-carboxamide], the inhibition at 1 µM was determined as 98%. `CCCn1cc(C(=O)NCCCO)c(=O)c2ccc(-c3cnc(NC(=O)NCC)cc3-c3nc(C(F)(F)F)cs3)cc21` [Example 349, 7-{6-[(ethylcarbamoyl)amino]-4-[4-(trifluoromethyl)-1,3-thiazol-2-yl]pyridin-3-yl}-N-(3-hydroxypropyl)-4-oxo-1-propyl-1,4-dihydroquinoline-3-carboxamide]: the inhibition at 1 µM was 108%. Take `CCCn1cc(C(=O)NCCN(C)C)c(=O)c2ccc(-c3cnc(NC(=O)NCC)cc3-c3nc(C(F)(F)F)cs3)cc21` [Example 350, N-[2-(dimethylamino)ethyl]-7-{6-[(ethylcarbamoyl)amino]-4-[4-(trifluoromethyl)-1,3-thiazol-2-yl]pyridin-3-yl}-4-oxo-1-propyl-1,4-dihydroquinoline-3-carboxamide]: the inhibition at 1 µM was found to be 96%. In the case of `CCCn1cc(C(=O)NCCN2CCOCC2)c(=O)c2ccc(-c3cnc(NC(=O)NCC)cc3-c3nc(C(F)(F)F)cs3)cc21` [Example 351, 7-{6-[(ethylcarbamoyl)amino]-4-[4-(trifluoromethyl)-1,3-thiazol-2-yl]pyridin-3-yl}-N-[2-(morpholin-4-yl)ethyl]-4-oxo-1-propyl-1,4-dihydroquinoline-3-carboxamide], the inhibition at 1 µM was found to be 95%.

Turning to `CCCn1cc(C(=O)NCCN2CCN(C)CC2)c(=O)c2ccc(-c3cnc(NC(=O)NCC)cc3-c3nc(C(F)(F)F)cs3)cc21` [Example 352, 7-{6-[(Ethylcarbamoyl)amino]-4-[4-(trifluoromethyl)-1,3-thiazol-2-yl]pyridin-3-yl}-N-[2-(4-methylpiperazin-1-yl)ethyl]-4-oxo-1-propyl-1,4-dihydroquinoline-3-carboxamide], the inhibition at 1 µM turned out to be 88%.

As for `CCNC(=O)Nc1cc(-c2nc(C(F)(F)F)cs2)c(-c2ccc3c(=O)c(C(=O)NC)cn(Cc4ccccc4)c3c2)cn1` [Example 353, 1-Benzyl-7-{6-[(ethylcarbamoyl)amino]-4-[4-(trifluoromethyl)-1,3-thiazol-2-yl]pyridin-3-yl}-N-methyl-4-oxo-1,4-dihydroquinoline-3-carboxamide], the inhibition at 1 µM was found to be 99%. Take `CCNC(=O)Nc1cc(-c2nc(C(F)(F)F)cs2)c(-c2ccc3c(=O)c(C(=O)NCCO)cn(Cc4ccccc4)c3c2)cn1` [Example 354, 1-Benzyl-7-{6-[(ethylcarbamoyl)amino]-4-[4-(trifluoromethyl)-1,3-thiazol-2-yl]pyridin-3-yl}-N-(2-hydroxyethyl)-4-oxo-1,4-dihydroquinoline-3-carboxamide]: the inhibition at 1 µM came out at 98%. Regarding `CCNC(=O)Nc1cc(-c2nc(C(F)(F)F)cs2)c(-c2ccc3c(=O)c(C(=O)NCCCO)cn(Cc4ccccc4)c3c2)cn1` [Example 355, 1-Benzyl-7-{6-[(ethylcarbamoyl)amino]-4-[4-(trifluoromethyl)-1,3-thiazol-2-yl]pyridin-3-yl}-N-(3-hydroxypropyl)-4-oxo-1,4-dihydroquinoline-3-carboxamide], the inhibition at 1 µM is 87%. Regarding `CCNC(=O)Nc1cc(-c2nc(C(F)(F)F)cs2)c(-c2ccc3c(=O)c(C(=O)NCCN(C)C)cn(Cc4ccccc4)c3c2)cn1` [Example 356, 1-Benzyl-N-[2-(dimethylamino)ethyl]-7-{6-[(ethylcarbamoyl)amino]-4-[4-(trifluoromethyl)-1,3-thiazol-2-yl]pyridin-3-yl}-4-oxo-1,4-dihydroquinoline-3-carboxamide], the inhibition at 1 µM was found to be 85%.

In the case of `CCNC(=O)Nc1cc(-c2nc(C(F)(F)F)cs2)c(-c2ccc3c(=O)c(C(=O)NCCN4CCOCC4)cn(Cc4ccccc4)c3c2)cn1` [Example 357, 1-Benzyl-7-{6-[(ethylcarbamoyl)amino]-4-[4-(trifluoromethyl)-1,3-thiazol-2-yl]pyridin-3-yl}-N-[2-(morpholin-4-yl)ethyl]-4-oxo-1,4-dihydroquinoline-3-carboxamide], the inhibition at 1 µM was 87%. Under `CCNC(=O)Nc1cc(-c2nc(C(F)(F)F)cs2)c(-c2ccc3c(=O)c(C(=O)NCCN4CCN(C)CC4)cn(Cc4ccccc4)c3c2)cn1` [Example 358, 1-Benzyl-7-{6-[(ethylcarbamoyl)amino]-4-[4-(trifluoromethyl)-1,3-thiazol-2-yl]pyridin-3-yl}-N-[2-(4-methylpiperazin-1-yl)ethyl]-4-oxo-1,4-dihydroquinoline-3-carboxamide] stands 95%; under `CCNC(=O)Nc1cc(-c2nc(C(F)(F)F)cs2)c(-c2ccc3c(=O)c(C(=O)NCCCO)cn(Cc4cccnc4)c3c2)cn1` [Example 359, 7-{6-[(ethylcarbamoyl)amino]-4-[4-(trifluoromethyl)-1,3-thiazol-2-yl]pyridin-3-yl}-N-(3-hydroxypropyl)-4-oxo-1-(pyridin-3-ylmethyl)-1,4-dihydroquinoline-3-carboxamide], 92%. Consider `CCNC(=O)Nc1cc(-c2nc(C(F)(F)F)cs2)c(-c2ccc3c(=O)c(C(=O)NCCN4CCOCC4)cn(Cc4cccnc4)c3c2)cn1` [Example 361, 7-{6-[(ethylcarbamoyl)amino]-4-[4-(trifluoromethyl)-1,3-thiazol-2-yl]pyridin-3-yl}-N-[2-(morpholin-4-yl)ethyl]-4-oxo-1-(pyridin-3-ylmethyl)-1,4-dihydroquinoline-3-carboxamide], for which the inhibition at 1 µM is 97%. Under `CCNC(=O)Nc1cc(-c2nc(C(F)(F)F)cs2)c(-c2ccc3c(=O)c(C(=O)NCCN4CCN(C)CC4)cn(Cc4cccnc4)c3c2)cn1` [Example 362, 7-{6-[(ethylcarbamoyl)amino]-4-[4-(trifluoromethyl)-1,3-thiazol-2-yl]pyridin-3-yl}-N-[2-(4-methylpiperazin-1-yl)ethyl]-4-oxo-1-(pyridin-3-ylmethyl)-1,4-dihydroquinoline-3-carboxamide] stands 94%; under `CCNC(=O)Nc1cc(-c2nc(C(F)(F)F)cs2)c(-c2ccc3c(=O)c(C(=O)NC)cn(CCO)c3c2)cn1` [Example 363, 7-{6-[(Ethylcarbamoyl)amino]-4-[4-(trifluoromethyl)-1,3-thiazol-2-yl]pyridin-3-yl}-1-(2-hydroxyethyl)-N-methyl-4-oxo-1,4-dihydroquinoline-3-carboxamide], 95%. For the compound `CCNC(=O)Nc1cc(-c2nc(C(F)(F)F)cs2)c(-c2ccc3c(=O)c(C(=O)NCCO)cn(CCO)c3c2)cn1` [Example 364, 7-{6-[(Ethylcarbamoyl)amino]-4-[4-(trifluoromethyl)-1,3-thiazol-2-yl]pyridin-3-yl}-N,1-bis(2-hydroxyethyl)-4-oxo-1,4-dihydroquinoline-3-carboxamide], the inhibition at 1 µM was found to be 97%.
